Assay results: PubChem BioAssay AID1963861 (Molecular Pharmacology Branch, DTP, NCI, 2024)

Tested on: 885724-159-R-J1-PDC KRAS PDC multicell spheroid viability
Assay: Anticancer human tumor 885724-159-R-J1-PDC patient-derived pancreatic adenocarcinoma cell line growth inhibition [KRAS2]
Settings: for viability, T/C: stronger effect = lower value
Method in brief: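 Combination screen of spheroid viability in tumor-cell co-cultures with endothelial (HUVEC) and mesenchymal stem cell stroma. Each agent was tested in half-log dilutions, topping at clinical Cmax or at 10 microM without a known Cmax.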

[1] = curve of first compound, second compound 0.1 µM
[2] = curve of first compound, second compound 0.316 µM
[3] = curve of first compound, second compound 1 µM
[4] = curve of first compound, second compound 3.16 µM
[5] = curve of first compound, second compound 10 µM
[6] = second compound 0.1 µM, first compound 0.0316 µM
[7] = second compound 0.1 µM, first compound 0.1 µM
[8] = second compound 0.1 µM, first compound 0.316 µM
[9] = second compound 0.1 µM, first compound 1 µM
[10] = second compound 0.1 µM, first compound 3.16 µM
[11] = second compound 0.316 µM, first compound 0.0316 µM
[12] = second compound 0.316 µM, first compound 0.1 µM
[13] = second compound 0.316 µM, first compound 0.316 µM
[14] = second compound 0.316 µM, first compound 1 µM
[15] = second compound 0.316 µM, first compound 3.16 µM
[16] = second compound 1 µM, first compound 0.0316 µM
[17] = second compound 1 µM, first compound 0.1 µM
[18] = second compound 1 µM, first compound 0.316 µM
[19] = second compound 1 µM, first compound 1 µM
[20] = second compound 1 µM, first compound 3.16 µM
[21] = second compound 3.16 µM, first compound 0.0316 µM
[22] = second compound 3.16 µM, first compound 0.1 µM
[23] = second compound 3.16 µM, first compound 0.316 µM
[24] = second compound 3.16 µM, first compound 1 µM
[25] = second compound 3.16 µM, first compound 3.16 µM
[26] = second compound 10 µM, first compound 0.0316 µM
[27] = second compound 10 µM, first compound 0.1 µM
[28] = second compound 10 µM, first compound 0.316 µM
[29] = second compound 10 µM, first compound 1 µM
[30] = second compound 10 µM, first compound 3.16 µM
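Further: spheroids exposed to agents for 7 days before readout.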

SMILES | IC50 [1] [nM] | IC50 [2] [nM] | IC50 [3] [nM] | IC50 [4] [nM] | IC50 [5] [nM] | viability, T/C [6] [%] | viability, T/C [7] [%] | viability, T/C [8] [%] | viability, T/C [9] [%] | viability, T/C [10] [%] | viability, T/C [11] [%] | viability, T/C [12] [%] | viability, T/C [13] [%] | viability, T/C [14] [%] | viability, T/C [15] [%] | viability, T/C [16] [%] | viability, T/C [17] [%] | viability, T/C [18] [%] | viability, T/C [19] [%] | viability, T/C [20] [%] | other results
COC(=O)c1ccc2c(C(=Nc3ccc(N(C)C(=O)CN4CCN(C)CC4)cc3)c3ccccc3)c(O)[nH]c2c1 |  |  |  |  |  |  |  |  |  |  |  |  |  |  |  |  |  |  |  |  | viability, T/C (compound 0.0316 µM): 99.8% [middle of 5 runs]; viability, T/C (compound 0.1 µM): 103% [middle of 5 runs]; viability, T/C (compound 0.316 µM): 98.2% [middle of 5 runs]; viability, T/C (compound 1 µM): 103% [middle of 5 runs]; viability, T/C (compound 3.16 µM): 29.4% [middle of 5 runs]; viability, T/C (compound 10 µM): 0.61% [middle of 5 runs]; IC50 (curve of compound): 2.26 µM [middle of 5 runs]
CC(C)NCC(C(=O)N1CCN(c2ncnc3c2C(C)CC3O)CC1)c1ccc(Cl)cc1 (configuration not stated) + C=CC(=O)N1CCN(c2nc(=O)n(-c3c(C)ccnc3C(C)C)c3nc(-c4c(O)cccc4F)c(F)cc23)C(C)C1 | > 10000 | > 10000 | > 10000 | 3780 | 175 | 111 | 88 | 80.3 | 77.5 | 79.4 | 103 | 93.6 | 74.1 | 80.5 | 77.9 | 105 | 92.9 | 83.5 | 79.8 | 71.8 | viability, T/C (second compound 0.1 µM, first compound 10 µM): 64.9%; viability, T/C (second compound 0.316 µM, first compound 10 µM): 60.8%; viability, T/C (second compound 1 µM, first compound 10 µM): 50.1%; viability, T/C [21]: 99.9%; viability, T/C [22]: 90.2%; viability, T/C [23]: 77.8%; viability, T/C [24]: 68.3%; viability, T/C [25]: 57.9%; viability, T/C (second compound 3.16 µM, first compound 10 µM): 31.8%; viability, T/C [26]: 73.5%; viability, T/C [27]: 68.8%; viability, T/C [28]: 30%; viability, T/C [29]: 11.5%; viability, T/C [30]: 18.8%; viability, T/C (second compound 10 µM, first compound 10 µM): 5.87%
CC1COCCN1c1cc(-c2ccnn2C)c2ccnc(-c3ccn[nH]3)c2n1 (configuration not stated) + C=CC(=O)N1CCN(c2nc(=O)n(-c3c(C)ccnc3C(C)C)c3nc(-c4c(O)cccc4F)c(F)cc23)C(C)C1 | > 3160 | 2780 | 2410 | > 3160 | 222 | 92.4 | 69.2 | 56.2 | 49.2 | 55.2 | 84.6 | 68.2 | 58.3 | 49 | 51.5 | 83.8 | 66.9 | 60.2 | 47.8 | 51.4 | viability, T/C (second compound 0.1 µM, first compound 0.01 µM): 111%; viability, T/C (second compound 0.316 µM, first compound 0.01 µM): 104%; viability, T/C (second compound 1 µM, first compound 0.01 µM): 106%; viability, T/C (second compound 3.16 µM, first compound 0.01 µM): 93.7%; viability, T/C [21]: 92.1%; viability, T/C [22]: 66.2%; viability, T/C [23]: 58.9%; viability, T/C [24]: 49.4%; viability, T/C [25]: 54.1%; viability, T/C (second compound 10 µM, first compound 0.01 µM): 71.7%; viability, T/C [26]: 65.7%; viability, T/C [27]: 55.9%; viability, T/C [28]: 46.7%; viability, T/C [29]: 45.6%; viability, T/C [30]: 42.7%
